A word on the inhibition: it is the relative decrease from the control value, in per cent.

In assay [1] the target is Lysosomal alpha-glucosidase (Rattus norvegicus) (UniProt Q6P7A9). The experiment in a line: Inhibition of rat intestinal alpha-glucosidase using p-nitrophenyl- alpha-D-glucopyranoside as substrate at 200 uM preincubated for 5 min before addition of substrate measured after 10 min.
Assay [2] deals with Radical scavenging activity. In words: Antioxidant activity assessed as DPPH free radical scavenging activity at 250 uM after 20 min. Format: functional.
Assay [3] deals with Rattus norvegicus. In words: Antihyperglycemic activity in starch fed Rattus norvegicus Wistar (rat) assessed as reduction of AUC of plasma glucose level at 50 mg/kg administered 15 min before starch feeding. The class given is functional, organism-based. Set-up: dose 50 mg/kg.
The test system of assay [4] is Rattus norvegicus. In words: Antihyperglycemic activity in starch fed Rattus norvegicus Wistar (rat) assessed as reduction of plasma glucose level at 50 mg/kg administered 15 min before starch feeding measured up to 60 min. Format: functional, organism-based. Also on record: dose 50 mg/kg.
Assay [5] concerns the target Lysosomal alpha-glucosidase (Rattus norvegicus) (UniProt Q6P7A9). The experiment in a line: Inhibition of rat intestinal alpha-glucosidase using p-nitrophenyl- alpha-D-glucopyranoside as substrate at 300 uM preincubated for 5 min before addition of substrate measured after 10 min.
Assay [6] deals with Radical scavenging activity. In words: Antioxidant activity assessed as DPPH free radical scavenging activity by measuring 50% radical scavenging concentration after 20 min. Format: functional. (In general: DPPH is a stable violet radical that fades when it is reduced.)

Active and inactive are the calls of the source. No cut-off for these calls is given here.

Chain of Lysosomal alpha-glucosidase (Rattus norvegicus) (Q6P7A9 whole entry): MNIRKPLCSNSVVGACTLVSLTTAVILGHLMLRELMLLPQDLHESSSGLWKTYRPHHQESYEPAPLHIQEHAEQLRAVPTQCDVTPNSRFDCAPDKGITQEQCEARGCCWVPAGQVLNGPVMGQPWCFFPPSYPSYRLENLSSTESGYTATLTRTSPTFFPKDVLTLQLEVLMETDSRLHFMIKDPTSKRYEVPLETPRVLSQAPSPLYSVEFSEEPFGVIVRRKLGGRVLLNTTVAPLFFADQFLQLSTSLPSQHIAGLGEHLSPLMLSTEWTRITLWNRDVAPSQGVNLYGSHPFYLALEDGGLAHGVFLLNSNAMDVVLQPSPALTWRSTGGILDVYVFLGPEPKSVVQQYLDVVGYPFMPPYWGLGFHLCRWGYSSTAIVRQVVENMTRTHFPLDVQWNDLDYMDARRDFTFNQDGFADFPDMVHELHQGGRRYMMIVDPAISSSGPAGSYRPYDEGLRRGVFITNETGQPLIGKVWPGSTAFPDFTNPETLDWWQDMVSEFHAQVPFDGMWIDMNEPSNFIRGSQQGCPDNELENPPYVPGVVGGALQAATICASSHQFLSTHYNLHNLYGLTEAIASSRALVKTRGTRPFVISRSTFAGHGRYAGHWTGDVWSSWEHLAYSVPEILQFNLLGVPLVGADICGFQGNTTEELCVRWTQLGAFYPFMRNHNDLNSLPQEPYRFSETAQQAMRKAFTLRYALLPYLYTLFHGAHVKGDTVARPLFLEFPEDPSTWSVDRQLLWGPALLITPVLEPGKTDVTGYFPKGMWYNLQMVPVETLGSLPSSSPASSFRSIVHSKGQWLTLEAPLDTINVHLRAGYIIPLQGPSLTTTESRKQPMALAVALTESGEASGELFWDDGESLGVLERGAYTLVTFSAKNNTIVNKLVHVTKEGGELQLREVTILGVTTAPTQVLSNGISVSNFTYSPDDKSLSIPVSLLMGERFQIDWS

In the case of `COc1ccc(/N=C/c2ccccc2O)cc1`, the inhibition in assay [1] worked out at 11.4%.
On to `COc1ccc(/N=C/c2cc(Br)ccc2O)cc1`, for which the Activity in assay [2] came to 48.7%. In assay [1], the inhibition entry is “Active”.
With `O=Cc1cc(Br)ccc1O`, the result in assay [3] and in assay [4] was Active. Moreover, the inhibition in assay [5] and in assay [1] was 85.8% throughout.
Regarding `Oc1ccccc1/C=N\c1ccccc1/N=C/c1ccccc1O`, the Activity in assay [6] is 115 µM; in assay [2] it was 75.3%. Besides, the inhibition in assay [1] is 57.9%.
In the case of `Oc1ccccc1/C=N/c1ccc(Cl)cc1`, the outcome in assay [2] was inactive. Further, in assay [1], the inhibition was 6.63%.
In the same order, the values of `Oc1ccc(Br)cc1/C=N/c1ccccc1` are 9.27% and “Active”.
As to `C/C(=N\CC/N=C(\C)c1ccccc1)c1ccccc1`, the inhibition result in assay [1] is “Active”.
Take `Oc1ccc(Br)cc1/C=N/c1ccc(Cl)cc1`: the Activity in assay [2] is 13.5%. In assay [1], the inhibition result was “inactive”.
In assay [1], `C/C(=N\NC(=O)c1ccccc1)c1ccc(C)cc1` had an inhibition of 31.6%.
For `O=[N+]([O-])c1ccc(/N=C/c2cc(Br)ccc2O)cc1`, the result in assay [2] was inactive. Besides, the inhibition entry in assay [1] was “Active”.
For the compound `Oc1ccc(Br)cc1/C=N/CC/N=C/c1cc(Br)ccc1O`, the result in assay [2] was inactive. Also, the inhibition in assay [1] was 14.4%.
In the same order, the values of `Oc1ccccc1/C=N/CC/N=C/c1ccccc1O` are “inactive” and 29.1%.
As to `Oc1ccccc1/C=N/c1ccccc1`, the Activity in assay [2] worked out at 9.29%. In addition, in assay [1], the inhibition entry is “Active”.
In the same order, the values of `O=[N+]([O-])c1ccc(/N=C/c2ccccc2O)cc1` are “inactive” and 95.6%.

The record behind these values is ChEMBL document CHEMBL3045597, “Antihyperglycemic, -glucosidase inhibitory and DPPH free radical scavenging activity of 5-bromosalicylaldehyde and schiff bases” (Med Chem Res, 2011).
